pEC50: −log10 of the molar value.
Target: human F508del-CFTR (Homo sapiens, UniProt P13569, DEL508-508)
Assay: F508del-CFTR cell surface expression (corrector activity), DiscoveRx ß-galactosidase complementation chemiluminescence assay in recombinant U2OS cell line;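 also: U2OS cells co-expressing ProLink-tagged F508del-CFTR and a membrane-anchored enzyme acceptor, where more surface CFTR restores β-galactosidase activity measured by chemiluminescence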
Conditions: U2OS cells, 16h compound incubation; for pEC50: EC50, F508del-CFTR cell surface expression, geomean of several measurements; for Emax: U2OS, in relation to the Emax of the corrector lumacaftor (=100%), arithmetic mean

Sequence of human F508del-CFTR (P13569 with tags, fused parts or gaps DEL508-508): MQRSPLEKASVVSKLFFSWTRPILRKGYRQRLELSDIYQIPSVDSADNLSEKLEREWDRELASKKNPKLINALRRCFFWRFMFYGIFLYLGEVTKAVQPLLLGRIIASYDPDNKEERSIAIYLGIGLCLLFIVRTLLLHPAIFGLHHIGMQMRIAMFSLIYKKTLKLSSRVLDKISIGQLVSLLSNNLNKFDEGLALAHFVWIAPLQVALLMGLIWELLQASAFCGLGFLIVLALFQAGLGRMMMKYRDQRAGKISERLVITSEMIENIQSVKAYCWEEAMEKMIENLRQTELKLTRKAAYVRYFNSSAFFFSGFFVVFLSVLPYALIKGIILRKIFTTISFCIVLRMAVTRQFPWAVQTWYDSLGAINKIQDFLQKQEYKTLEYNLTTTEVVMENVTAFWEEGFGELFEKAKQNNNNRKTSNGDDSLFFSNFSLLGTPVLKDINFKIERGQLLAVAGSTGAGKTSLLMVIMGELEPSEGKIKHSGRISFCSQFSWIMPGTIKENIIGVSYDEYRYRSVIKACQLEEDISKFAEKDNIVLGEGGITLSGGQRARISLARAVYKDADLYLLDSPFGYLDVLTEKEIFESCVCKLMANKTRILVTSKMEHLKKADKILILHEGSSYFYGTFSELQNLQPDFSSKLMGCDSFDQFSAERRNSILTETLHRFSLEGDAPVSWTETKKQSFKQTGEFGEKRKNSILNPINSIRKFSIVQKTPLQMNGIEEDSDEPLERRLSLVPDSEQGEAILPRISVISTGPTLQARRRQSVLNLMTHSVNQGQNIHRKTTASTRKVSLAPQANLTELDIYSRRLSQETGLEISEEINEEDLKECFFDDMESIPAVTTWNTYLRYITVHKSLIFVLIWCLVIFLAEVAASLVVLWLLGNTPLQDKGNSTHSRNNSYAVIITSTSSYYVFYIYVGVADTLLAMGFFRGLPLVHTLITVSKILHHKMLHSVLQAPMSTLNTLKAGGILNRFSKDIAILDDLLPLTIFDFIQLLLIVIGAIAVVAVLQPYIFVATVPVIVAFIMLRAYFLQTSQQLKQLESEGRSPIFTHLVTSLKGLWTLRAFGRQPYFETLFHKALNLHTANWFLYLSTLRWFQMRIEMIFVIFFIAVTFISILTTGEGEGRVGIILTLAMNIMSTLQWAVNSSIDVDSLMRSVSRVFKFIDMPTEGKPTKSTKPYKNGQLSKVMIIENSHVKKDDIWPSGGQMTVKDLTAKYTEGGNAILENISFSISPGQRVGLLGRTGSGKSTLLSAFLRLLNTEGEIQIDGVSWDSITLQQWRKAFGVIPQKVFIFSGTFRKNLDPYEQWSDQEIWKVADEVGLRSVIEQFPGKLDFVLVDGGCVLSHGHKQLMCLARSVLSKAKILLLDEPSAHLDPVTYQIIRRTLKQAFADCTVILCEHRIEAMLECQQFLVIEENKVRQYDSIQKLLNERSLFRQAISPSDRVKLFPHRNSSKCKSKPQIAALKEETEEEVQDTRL

Row | Structure (SMILES) | pEC50 | Emax [%]
1 | CC(C)C[C@H]1C(=O)N(C)[C@H](CCc2nc(-c3ccc(F)cn3)no2)C(=O)N[C@H](Cc2ccccc2)COc2cnc3ccc(F)cc3c2C(=O)N[C@H](C(=O)NCCc2noc(C3CC3)n2)CC(=O)N1C [Example 887, (3S,7S,10R,13R)-13-benzyl-N-(2-(5-cyclopropyl-1,2,4-oxadiazol-3-yl)ethyl)-20-fluoro-10-(2-(3-(5-fluoropyridin-2-yl)-1,2,4-oxadiazol-5-yl)ethyl)-7-isobutyl-6,9-dimethyl-1,5,8,11-tetraoxo-1,2,3,4,5,6,7,8,9,10,11,12,13,14-tetradecahydro-[1]oxa[4,7,10,14]tetraazacycloheptadecino[17,16-c]quinoline-3-carboxamide] | 6.95 | 340
2 | Cc1cc2c(c3cccnc13)C(=O)N[C@H](C(=O)NCCn1nnc(C3CC3)n1)CC(=O)N(C)[C@@H](CC(C)C)C(=O)N1CCCC[C@@H]1C(=O)N[C@H](Cc1ccccc1)CO2 [Example 888, (9S,13S,19aR,22R)-22-benzyl-N-(2-(5-cyclopropyl-2H-tetrazol-2-yl)ethyl)-13-isobutyl-2,12-dimethyl-7,11,14,20-tetraoxo-7,8,9,10,11,12,13,14,17,18,19,19a,20,21,22,23-hexadecahydro-16H-pyrido[2′,1′:6,7][1]oxa[4,7,10,14]tetraazacycloheptadecino[16,17-f]quinoline-9-carboxamide] | 6.77 | 410
3 | CC(C)C[C@H]1C(=O)N(C)[C@H](Cc2nc(-c3ccc(F)cn3)no2)C(=O)N[C@H](Cc2ccccc2)COc2ccc3ncc(F)cc3c2C(=O)N[C@H](C(=O)NC[C@@H](O)c2nc(C3CC3)no2)CC(=O)N1C [Example 892, (3S,7S,10R,13R)-13-benzyl-N-((R)-2-(3-cyclopropyl-1,2,4-oxadiazol-5-yl)-2-hydroxyethyl)-20-fluoro-10-((3-(5-fluoropyridin-2-yl)-1,2,4-oxadiazol-5-yl)methyl)-7-isobutyl-6,9-dimethyl-1,5,8,11-tetraoxo-1,2,3,4,5,6,7,8,9,10,11,12,13,14-tetradecahydro-[1]oxa[4,7,10,14]tetraazacycloheptadecino[16,17-f]quinoline-3-carboxamide] | 6.33 | 442
4 | CCOCC[C@@H]1C(=O)N[C@H](Cc2ccccc2)COc2ccc3ncc(F)cc3c2C(=O)N[C@H](C(=O)NCCc2cc(C)no2)CC(=O)N(C)[C@@H](CC(C)C)C(=O)N1C [Example 894, (3S,7S,10R,13R)-13-benzyl-10-(2-ethoxyethyl)-20-fluoro-7-isobutyl-6,9-dimethyl-N-(2-(3-methylisoxazol-5-yl)ethyl)-1,5,8,11-tetraoxo-1,2,3,4,5,6,7,8,9,10,11,12,13,14-tetradecahydro-[1]oxa[4,7,10,14]tetraazacycloheptadecino[16,17-f]quinoline-3-carboxamide] | 6.47 | 431
5 | CCOCC[C@@H]1C(=O)N[C@H](Cc2ccccc2)COc2ccc3ncc(F)cc3c2C(=O)N[C@H](C(=O)NCCc2cc(OC)no2)CC(=O)N(C)[C@@H](CC(C)C)C(=O)N1C [Example 895, (3S,7S,10R,13R)-13-benzyl-10-(2-ethoxyethyl)-20-fluoro-7-isobutyl-N-(2-(3-methoxyisoxazol-5-yl)ethyl)-6,9-dimethyl-1,5,8,11-tetraoxo-1,2,3,4,5,6,7,8,9,10,11,12,13,14-tetradecahydro-[1]oxa[4,7,10,14]tetraazacycloheptadecino[16,17-f]quinoline-3-carboxamide] | 6.87 | 409
6 | CCOCC[C@@H]1C(=O)N[C@H](Cc2ccccc2)COc2ccc3ncc(F)cc3c2C(=O)N[C@H](C(=O)NCCn2nnc(C3CC3)n2)CC(=O)N(C)[C@@H](CC(C)C)C(=O)N1C [Example 896, (3S,7S,10R,13R)-13-benzyl-N-(2-(5-cyclopropyl-2H-tetrazol-2-yl)ethyl)-10-(2-ethoxyethyl)-20-fluoro-7-isobutyl-6,9-dimethyl-1,5,8,11-tetraoxo-1,2,3,4,5,6,7,8,9,10,11,12,13,14-tetradecahydro-[1]oxa[4,7,10,14]tetraazacycloheptadecino[16,17-f]quinoline-3-carboxamide] | 6.73 | 427
7 | COc1cc(CCNC(=O)[C@@H]2CC(=O)N(C)[C@@H](CC(C)C)C(=O)N(C)[C@H](Cc3nc(C(F)(F)F)no3)C(=O)N[C@H](Cc3ccccc3)COc3cc(C)nc(OC)c3C(=O)N2)on1 [Example 897, (3R,6R,9S,13S)-3-benzyl-9-isobutyl-16-methoxy-N-(2-(3-methoxyisoxazol-5-yl)ethyl)-7,10,18-trimethyl-5,8,11,15-tetraoxo-6-((3-(trifluoromethyl)-1,2,4-oxadiazol-5-yl)methyl)-2,3,4,5,6,7,8,9,10,11,12,13,14,15-tetradecahydropyrido[3,4-p][1]oxa[4,7,10,14]tetraazacycloheptadecine-13-carboxamide] | 7.49 | 454
8 | Cc1cc2c3c(ccc2cn1)OC[C@@H](Cc1ccccc1)NC(=O)C1(CC1)N(C)C(=O)[C@H](CC(C)C)N(C)C(=O)C[C@@H](C(=O)NCCc1noc(C2CC2)n1)NC3=O [Example 900, (3′S,7′S,13′R)-13′-benzyl-N-(2-(5-cyclopropyl-1,2,4-oxadiazol-3-yl)ethyl)-7′-isobutyl-6′,9′,20′-trimethyl-1′,5′,8′,11′-tetraoxo-2′,3′,4′,5′,6′,7′,8′,9′,11′,12′,13′,14′-dodecahydro-1′H-spiro[cyclopropane-1,10′-[1]oxa[4,7,10,14]tetraazacycloheptadecino[16,17-f]isoquinoline]-3′-carboxamide] | 6.08 | 374
9 | COc1cc(CCNC(=O)[C@@H]2CC(=O)N(C)[C@@H](CC(C)C)C(=O)N(C)C3(CC3)C(=O)N[C@H](Cc3ccccc3)COc3ccc4cnc(C)cc4c3C(=O)N2)on1 [Example 901, (3′S,7′S,13′R)-13′-benzyl-7′-isobutyl-N-(2-(3-methoxyisoxazol-5-yl)ethyl)-6′,9′,20′-trimethyl-1′,5′,8′,11′-tetraoxo-2′,3′,4′,5′,6′,7′,8′,9′,11′,12′,13′,14′-dodecahydro-1′H-spiro[cyclopropane-1,10′-[1]oxa[4,7,10,14]tetraazacycloheptadecino[16,17-f]isoquinoline]-3′-carboxamide] | 6.13 | 390

Second part, the compound after the results:

Row | pEC50 | Emax [%] | Structure (SMILES)
10 | 7.47 | 403 | Cc1cc2c3c(ccc2cn1)OC[C@@H](Cc1ccccc1)NC(=O)[C@@H](Cc1nc(C(F)(F)F)no1)N(C)C(=O)[C@H](CC(C)C)N(C)C(=O)C[C@@H](C(=O)NCCc1noc(C2CC2)n1)NC3=O [Example 889, (3S,7S,10R,13R)-13-benzyl-N-(2-(5-cyclopropyl-1,2,4-oxadiazol-3-yl)ethyl)-7-isobutyl-6,9,20-trimethyl-1,5,8,11-tetraoxo-10-((3-(trifluoromethyl)-1,2,4-oxadiazol-5-yl)methyl)-1,2,3,4,5,6,7,8,9,10,11,12,13,14-tetradecahydro-[1]oxa[4,7,10,14]tetraazacycloheptadecino[16,17-f]isoquinoline-3-carboxamide]
11 | 7.47 | 409 | Cc1cc2c3c(ccc2cn1)OC[C@@H](Cc1ccccc1)NC(=O)[C@@H](Cc1nc(C(F)(F)F)no1)N(C)C(=O)[C@H](CC(C)C)N(C)C(=O)C[C@@H](C(=O)NCCn1nnc(C2CC2)n1)NC3=O [Example 890, (3S,7S,10R,13R)-13-benzyl-N-(2-(5-cyclopropyl-2H-tetrazol-2-yl)ethyl)-7-isobutyl-6,9,20-trimethyl-1,5,8,11-tetraoxo-10-((3-(trifluoromethyl)-1,2,4-oxadiazol-5-yl)methyl)-1,2,3,4,5,6,7,8,9,10,11,12,13,14-tetradecahydro-[1]oxa[4,7,10,14]tetraazacycloheptadecino[16,17-f]isoquinoline-3-carboxamide]
12 | 6.67 | 394 | CC(C)C[C@H]1C(=O)N(C)[C@H](CC(F)F)C(=O)N[C@H](Cc2ccccc2)COc2ccc3ncc(F)cc3c2C(=O)N[C@H](C(=O)NCCn2nnc(C3CC3)n2)CC(=O)N1C [Example 893, (3S,7S,10R,13R)-13-benzyl-N-(2-(5-cyclopropyl-2H-tetrazol-2-yl)ethyl)-10-(2,2-difluoroethyl)-20-fluoro-7-isobutyl-6,9-dimethyl-1,5,8,11-tetraoxo-1,2,3,4,5,6,7,8,9,10,11,12,13,14-tetradecahydro-[1]oxa[4,7,10,14]tetraazacycloheptadecino[16,17-f]quinoline-3-carboxamide]
13 | 7.66 | 440 | COc1cc(CCNC(=O)[C@@H]2CC(=O)N(C)[C@@H](CC(C)C)C(=O)N(C)[C@H](Cc3nc(C(F)(F)F)no3)C(=O)N[C@H](Cc3ccccc3)COc3ccc4cnc(C)cc4c3C(=O)N2)on1 [Example 898, (3S,7S,10R,13R)-13-benzyl-7-isobutyl-N-(2-(3-methoxyisoxazol-5-yl)ethyl)-6,9,20-trimethyl-1,5,8,11-tetraoxo-10-((3-(trifluoromethyl)-1,2,4-oxadiazol-5-yl)methyl)-1,2,3,4,5,6,7,8,9,10,11,12,13,14-tetradecahydro-[1]oxa[4,7,10,14]tetraazacycloheptadecino[16,17-f]isoquinoline-3-carboxamide]
14 | 7.26 | 453 | COc1nc(C)cc2c1C(=O)N[C@H](C(=O)NCCn1nnc(C3CC3)n1)CC(=O)N(C)[C@@H](CC(C)C)C(=O)N(C)[C@H](Cc1nc(C(F)(F)F)no1)C(=O)N[C@H](Cc1ccccc1)CO2 [Example 902, (3R,6R,9S,13S)-3-benzyl-N-(2-(5-cyclopropyl-2H-tetrazol-2-yl)ethyl)-9-isobutyl-16-methoxy-7,10,18-trimethyl-5,8,11,15-tetraoxo-6-((3-(trifluoromethyl)-1,2,4-oxadiazol-5-yl)methyl)-2,3,4,5,6,7,8,9,10,11,12,13,14,15-tetradecahydropyrido[3,4-p][1]oxa[4,7,10,14]tetraazacycloheptadecine-13-carboxamide]
